Test results from US5436273A, “Psychoactive propargylamine derivatives used in the treatment of anxiety, psychotic states or aggression” (Lowchol Scientific, Inc., priority 1993, dated 1995).
Like-named read-outs stand apart in the source and are kept apart here.

Columns and labels:
in vivo = conditions: mouse, ip
Acute toxicity test = conditions: mouse, in vivo, ip
Method: CD #1 mice (20-30 g) are used for this test. The animals are individualy housed in glass beakers for a 2 hour period of acclimatization without food and water.

[1] = test system: isolation induced aggressive behavior in mice; assay: Inhibition of isolation induced fighting behavior in mice; assay type: in vivo, CD #1 mice; conditions: for ED50: Mus musculus, ip, 0.5 h, read-out: ED50 (dose that suppressed aggressive behavior in 50% of the animals)
Method: 1. Inhibition of Isolation Induced Fighting Behavior in Mice
After this period of confinement, the animals usually develop a marked intraspecific aggressive behavior when they are placed in the same cage.
The compound to be studied is administered i.p. to the selected groups (N=8 pairs/dose×5 doses) and the aggressive behavior is tested again 30 minutes later. […] A one week washout period is allowed between treatments.

[2] = Rotarod neurotoxicity test in mice; conditions: mouse, in vivo, ip
[3] = i.p., 30 minutes after administration, probit analysis

SMILES | TD50 at 0.5 h (in vivo) [mg/kg] | LD50 (Acute toxicity test) [mg/kg] | ED50 [1, 3] [mg/kg] | LD50 (Acute toxicity test; probit analysis) [mg/kg] | inhibition of aggressive behavior (in words) ([1]; i.p., mice) | TD50 at 0.5 h [2] [mg/kg] | ED50 [1] [mg/kg]
CCC(N)C#Cc1ccccc1 (centres unmarked) [Compound 25] | ≥ 84 | 84 | 16 |  |  |  | 
CC(C#Cc1cccc(C(F)(F)F)c1)N(C)C (centres unmarked) [Compound 7] | 153 | 220 | 38 |  |  |  | 
FC(F)(F)c1cccc(C#CCNc2ccco2)c1 [Compound 15] | 193 | 351 | 19 |  |  |  | 
CC(N)C#Cc1cccc(Cl)c1 (centres unmarked) [Compound 24] | 50 | > 100 |  |  |  |  | 
C#CC(C)NC (centres unmarked) [Compound 34] |  |  | 26 | 828 |  |  | 
FC(F)(F)c1cccc(C#CCNCCc2ccccc2)c1 [Compound 9] | 126 | 252 | 58 |  |  |  | 
CC(C#Cc1ccccc1)NCc1ccccc1 (centres unmarked) [Compound 16] | 170 | 309 | 101 |  |  |  | 
CC(C#Cc1ccccc1)Nc1ccco1 (centres unmarked) [Compound 18] |  |  | 64 | ~300 |  |  | 
CC(N)C#Cc1ccc(C#N)cc1 (centres unmarked) [Compound 2, 2-Amino-4-(p-cyanophenyl)-3-butyne] | > 100 |  | 8 | > 100 | particularly potent inhibitors |  | 
CC(N)C#Cc1ccc(C(N)=O)cc1 (centres unmarked) [Compound 22] |  |  |  | > 100 |  |  | 
CC(C#Cc1cccc(C(F)(F)F)c1)Nc1ccco1 (centres unmarked) [Compound 19] |  |  | 73 |  |  |  | 
CC(C#Cc1cccc(C(F)(F)F)c1)NCc1ccccc1 (centres unmarked) [Compound 17] | 123 | 366 | 50 |  |  |  | 
CC(N)C#Cc1ccccc1 (centres unmarked) [Compound 30] | ~50 | 66 | 15 |  |  |  | 
COc1ccc(C#CC(C)N)cc1 (centres unmarked) [Compound 23] |  |  | 24 | > 100 |  |  | 
CNC(C)C#Cc1ccccc1 (centres unmarked) [Compound 31] |  |  |  | 95 |  | ≥ 95 | 12
